In the test the test system is anti-aldicarb monoclonal antibody. Put plainly: icELISA cross-reaction test of the monoclonal antibody. The format is binding, mouse. The note with it: for Cross-reaction rate: IC50 of aldicarb relative to IC50 of inhibitor; for IC50: icELISA, inhibitor against anti-aldicarb monoclonal antibody. From the text: A mouse monoclonal antibody subtype identification ELISA kit was used to identify the antibody subtype. Indirect competitive ELISA (icELISA) was used to determine the 50% inhibitory mass concentration (IC50) of the monoclonal antibody against aldicarb, and IC50 was used to measure the sensitivity of the monoclonal antibody ([28]). Cross-reaction tests were used to determine specificity, in which aldicarb sulfone, aldicarb sulfoxide, thiofanox, oxamyl, methomyl, metolcarb, isoprocarb, and carbofuran were selected as inhibitors. The IC50 of each inhibitor was determined by icELISA, and the IC50 of the monoclonal antibody against aldicarb and the IC50 of the inhibitor were taken as the cross-reaction rate.
Antibody specificity is the ability of the antibody to bind to a specific antigen in preference over antigen analogs. The cross-reactivity rate is often used as an evaluation standard because an inverse relationship exists between the cross-reactivity rate and the specificity of the antibody. In this study, we selected aldicarb sulfone, aldicarb sulfoxide, thiofanox, oxamyl, methomyl, metolcarb, isoprocarb, and carbofuran, with chemical structures similar to that of aldicarb, for the specificity analysis.

In turn, `CNC(=O)O/N=C/C(C)(C)SC` [Aldicarb, [(E)-(2-methyl-2-methylsulfanylpropylidene)amino]N-methylcarbamate] had a Cross-reaction rate of 100%.

In the case of `CNC(=O)ON=C(CSC)C(C)(C)C` [Thiofanox], the Cross-reaction rate is <0.978% and the IC50 is >0.042 µg/mL. Also, where the note is “listed as thiofanox”, the Cross-reaction rate is on record as < 1%.

As for `CNC(=O)Oc1cccc(C)c1` [Metolcarb], the Cross-reaction rate was <0.978% and the IC50 was >0.042 µg/mL. Also, the Cross-reaction rate (listed as metolcarb) is < 1%.

Regarding `CNC(=O)ON=C(C)SC` [Methomyl], the Cross-reaction rate was <0.978% and the IC50 was >0.042 µg/mL. For the same molecule, the Cross-reaction rate (listed as methomyl) is listed as < 1%.

Take `CNC(=O)Oc1cccc2c1OC(C)(C)C2` [Carbofuran]: the Cross-reaction rate was <0.978% and the IC50 is >0.042 µg/mL. The Cross-reaction rate (listed as carbofuran) was < 1%.

Take `CNC(=O)Oc1ccccc1C(C)C` [Isoprocarb]: the Cross-reaction rate is on record as <0.978% and the IC50 is >0.042 µg/mL. For the same molecule, for the setting “listed as isoprocarb”, the Cross-reaction rate was < 1%.

For `CNC(=O)O/N=C/C(C)(C)[S+](C)[O-]` (stereo not shown) [Aldicarb sulfoxide], the Cross-reaction rate is given as <0.978% and the IC50 is >0.042 µg/mL. Under “listed as aldicarb sulfoxide”, the Cross-reaction rate is reported as < 1%.

As to `CNC(=O)O/N=C(\SC)C(=O)N(C)C` [Oxamyl], the Cross-reaction rate was <0.978% and the IC50 was >0.042 µg/mL. The Cross-reaction rate (listed as oxamyl) is given as < 1%.

`CNC(=O)O/N=C/C(C)(C)S(C)(=O)=O` [Aldicarb sulfone]: the Cross-reaction rate was <0.978% and the IC50 is >0.042 µg/mL. In addition, where the note is “listed as aldicarb sulfone”, the Cross-reaction rate was < 1%.

These data come from publication PMC9446148, “Hapten designs based on aldicarb for the development of a colloidal gold immunochromatographic quantitative test strip” (Frontiers in Nutrition, 2022).
